One molecule from patent US20080280939A1, “Combination of Organic Compounds” (priority 2004, published 2008) can be followed below.

Data set [1] is described as follows: 4-week toxicity study in rats. It is filed as in vivo. The protocol:
(§1) Rapamycin or derivatives thereof are well tolerated at dosages required for use in accordance with the present invention. For example, the NTEL for Compound A in a 4-week toxicity study is 0.5 mg/kg/day in rats and 1.5 mg/kg/day in monkeys.

Data set [2] is described as follows: 4-week toxicity study in monkeys. It is filed as in vivo. The method, then:
as §1

Structures are written as SMILES.

`CO[C@H]1C[C@@H]2CC[C@@H](C)[C@@](O)(O2)C(=O)C(=O)N2CCCC[C@H]2C(=O)O[C@H]([C@H](C)C[C@@H]2CC[C@@H](OCCO)[C@H](OC)C2)CC(=O)[C@H](C)/C=C(\C)[C@@H](O)[C@@H](OC)C(=O)[C@H](C)C[C@H](C)/C=C/C=C/C=C/1C` [Compound A, 40-0-(2-hydroxyethyl)-rapamycin]: the NTEL in data set [1] is 0.5 mg/kg/day; in data set [2], 1.5 mg/kg/day.
